One may read the pKi as the Ki on a negative log10 scale, so that one unit is a factor of ten. High values mean a low Ki, low ones a high Ki.

Data on 2 molecules can be found in BindingDB's records for doi:10.7270/Q29885F3 (Nmmlsc, 2009).

In the test the target is Ras-related protein Rab-7a (Canis lupus familiaris, UniProt P18067). The test can be described thus: analogs blocking nucleotide binding to wildtype Rab7 – biochemical, oxadiazole analogs, multiplex bead flow cytometry, SAR follow-up (AID 2031). The settings on record: inactive by the depositor's call. For orientation: Flow cytometry measures light scatter and fluorescence of single cells or particles in a stream.

SMILES strings stand for the structures. pKi: −log10 of the molar value.

Chain of Ras-related protein Rab-7a (P18067 whole entry): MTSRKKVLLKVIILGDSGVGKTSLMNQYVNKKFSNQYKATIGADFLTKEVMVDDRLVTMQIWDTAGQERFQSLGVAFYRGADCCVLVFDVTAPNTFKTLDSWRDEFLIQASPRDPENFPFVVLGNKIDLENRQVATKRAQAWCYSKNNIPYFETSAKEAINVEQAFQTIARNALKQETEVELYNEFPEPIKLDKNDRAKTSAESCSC

For `COc1ccc(-c2noc(CCC(=O)N3CCN(c4cccc(C)c4C)CC3)n2)cc1` [1-[4-(2,3-dimethylphenyl)-1-piperazinyl]-3-[3-(4-methoxyphenyl)-1,2,4-oxadiazol-5-yl]-1-propanone], the pKi was 7.00. To `Cc1ccc(C)c(N2CCN(C(=O)CCc3nc(-c4ccc(Br)cc4)no3)CC2)c1` [UNM-0000306072] belongs 7.00.
